Test systems include 786-0 renal; ACHN renal; HCT-116 colon; HT29 colon; LOX IMVI melanoma; NCI-H226 lung; SR leukemia; RPMI-8226 leukemia; MCF7 breast; NCI/ADR-RES ovarian.
What all share (assay): inhibition of tumour cell growth, NCI panel, 48 h

Each structure is given as a SMILES string. Values joined by “and” are separate entries in the source; they are usually repeats but may differ in a detail not shown here. Equal entries are not always repeated.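 Assay format: 96-well plates, 48-hour exposure. GI50 is the concentration that inhibits growth by half. TGI is the concentration that stops growth completely.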 Bounds are passed on as bounds.

Take `CN1NC2(CCCCC2)ON=C1c1ccccc1`: the TGI in the test on 786-0 renal, in the test on ACHN renal, in the test with HCT-116 colon, in the test on HT29 colon, with LOX IMVI melanoma and in the test on NCI-H226 lung was over 100 µM throughout. In the test with SR leukemia, this compound gave a TGI of over 100 µM.
On to `C1CCN(c2nsc(N3CCCCC3)n2)CC1`, for which the TGI with 786-0 renal, in the test with ACHN renal, with HCT-116 colon, in the test with HT29 colon, with LOX IMVI melanoma and in the test with NCI-H226 lung was over 100 µM each time. Besides, the TGI in the test with RPMI-8226 leukemia and in the test on SR leukemia was over 100 µM each time.
Regarding `COc1ccc2c(c1OC)C1=C(C2=O)c2cc3c(cc2CCN1)OCO3`, the TGI in the test with 786-0 renal was over 100 µM; with ACHN renal, over 100 µM; in the test on HCT-116 colon, over 100 µM; in the test on HT29 colon it was 43.3 µM; with LOX IMVI melanoma, 61.1 µM; in the test with NCI-H226 lung, 9.58 µM. The TGI was 59.3 µM with RPMI-8226 leukemia and 55 µM with SR leukemia.
Regarding `N#Cc1cnc2cc(OC[C@@H](O)CO)c(NC(=O)CC3CSSC3)cc2c1Nc1ccc(OCc2cccc(F)c2)c(Cl)c1`, the GI50 in the test with 786-0 renal was 1.38 µM; in the test on ACHN renal, 1.1 µM; in the test with HCT-116 colon, 0.0882 µM; in the test with HT29 colon, 0.225 µM; in the test on LOX IMVI melanoma, 2.17 µM; with MCF7 breast it was 0.0857 µM. Moreover, the GI50 is 2.19 µM in the test with NCI/ADR-RES ovarian, 0.557 µM in the test with RPMI-8226 leukemia and 0.0408 µM with SR leukemia. Further, the TGI in the test with 786-0 renal was 4.57 µM; in the test on ACHN renal, 2.87 µM; in the test with HCT-116 colon, 0.2 µM; with HT29 colon it was 0.759 µM; in the test on LOX IMVI melanoma, 3.08 µM; in the test on MCF7 breast it was 0.182 µM. Besides, the TGI came out at 3.16 µM in the test on NCI/ADR-RES ovarian, 1.74 µM in the test on RPMI-8226 leukemia and 0.275 µM with SR leukemia.
As to `CCNC(=O)C#CC(=O)NCC`, the GI50 in the test with 786-0 renal was over 10 µM; with ACHN renal, over 10 µM; in the test with HCT-116 colon, over 10 µM; in the test with HT29 colon it was over 10 µM; with LOX IMVI melanoma, over 10 µM; in the test with NCI-H226 lung, over 100 µM. Also, the GI50 in the test on RPMI-8226 leukemia and with SR leukemia was over 10 µM each time. In addition, the TGI was over 100 µM in the test with 786-0 renal; over 100 µM in the test on ACHN renal; > 10 µM and 47.7 µM with HCT-116 colon; over 100 µM in the test with HT29 colon; over 100 µM with LOX IMVI melanoma; over 100 µM with NCI-H226 lung. Besides, the TGI in the test with RPMI-8226 leukemia is over 62.8 µM; in the test with SR leukemia it was over 61.4 µM.
`NC(=O)c1cc(Br)cc(C2CCCCC2)c1O`: the GI50 in the test with 786-0 renal is 11.8 µM; in the test on ACHN renal, 12.9 µM; with HCT-116 colon, 12.5 µM; in the test with HT29 colon it was 16.8 µM; in the test on LOX IMVI melanoma, 13.2 µM; in the test with MCF7 breast, 15.8 µM. For the same compound, the values for the GI50 in the test on NCI-H226 lung, in the test on NCI/ADR-RES ovarian and in the test on SR leukemia were 13.6 µM, 11 µM and 14.2 µM, respectively. Further, the TGI stood at 24.4 µM with 786-0 renal; 25.5 µM with ACHN renal; 25 µM with HCT-116 colon; 32 µM in the test on HT29 colon; 26 µM in the test with LOX IMVI melanoma; 30.8 µM in the test with MCF7 breast. For the same compound, the results for the TGI with NCI-H226 lung, in the test on NCI/ADR-RES ovarian and with SR leukemia were 31 µM, 23.9 µM and 34.6 µM, respectively.
With `Nc1nnc2cc(Cl)ccc2n1`, the GI50 in the test on 786-0 renal, in the test with ACHN renal, in the test with HCT-116 colon, in the test on LOX IMVI melanoma, in the test on MCF7 breast and in the test on NCI-H226 lung was over 100 µM each time. The GI50 in the test with NCI/ADR-RES ovarian, in the test on RPMI-8226 leukemia and with SR leukemia was over 100 µM each time. Also, the TGI with 786-0 renal, in the test on ACHN renal, with HCT-116 colon, in the test on LOX IMVI melanoma, in the test on MCF7 breast and in the test on NCI-H226 lung was over 100 µM throughout. Also, the TGI in the test with NCI/ADR-RES ovarian, with RPMI-8226 leukemia and in the test on SR leukemia was over 100 µM throughout.
As to `CC(=O)OCCOCNC(=S)N/N=C(\C)c1cnc2ccccc2n1`, the TGI in the test on 786-0 renal, in the test on ACHN renal, with HCT-116 colon, with HT29 colon, in the test with LOX IMVI melanoma and with NCI-H226 lung was over 100 µM throughout. Besides, the TGI in the test on RPMI-8226 leukemia and in the test on SR leukemia was over 100 µM each time.
With `COc1ccc(C(N)=O)cc1N=NN(C)C`, the TGI in the test on 786-0 renal, with ACHN renal, with HCT-116 colon, in the test with HT29 colon, in the test with LOX IMVI melanoma and in the test on NCI-H226 lung was over 100 µM throughout. The TGI with RPMI-8226 leukemia and in the test on SR leukemia was over 100 µM each time.
In the case of `CN(CN1C(=O)C2Cc3ccccc3CN2C1=O)c1ccccn1` (stereo not given), the TGI in the test with 786-0 renal, with ACHN renal, with LOX IMVI melanoma, in the test on NCI-H226 lung, in the test on RPMI-8226 leukemia and with SR leukemia was over 100 µM throughout.
As to `C=C=C(CC)C(C(=O)OC)N(CC)CC` (stereo not given), the TGI with 786-0 renal, with ACHN renal, with HCT-116 colon, with HT29 colon, in the test with LOX IMVI melanoma and in the test on NCI-H226 lung was over 100 µM each time. Further, the TGI with RPMI-8226 leukemia and with SR leukemia was over 100 µM each time.
Take `COc1cccc(NC(=O)CC(=O)N2N=C(N(CCC#N)c3ccccc3C)CC2c2ccccc2)c1` (stereo not given): the TGI in the test on 786-0 renal, in the test with ACHN renal, in the test on HCT-116 colon, in the test on HT29 colon, in the test with NCI-H226 lung and in the test on RPMI-8226 leukemia was over 100 µM throughout. Besides, in the test with SR leukemia, the TGI was over 100 µM.
For the compound `N=c1nnc(=O)c2c(s1)-n1ncc(C(=O)O)c1NN2`, the TGI in the test with 786-0 renal, in the test with HCT-116 colon, with HT29 colon, in the test with RPMI-8226 leukemia and with SR leukemia was over 100 µM throughout.

The values are drawn from PubChem BioAssay (NCI).
